The results in this text go back to ChEMBL document CHEMBL1212812, “Multi-target spectral moment QSAR versus ANN for antiparasitic drugs against different parasite species” (Bioorg Med Chem, 2010).

Assay type in all cases: functional, organism-based
One assay relates to Plasmodium falciparum. The assay can be described thus: Antimicrobial activity against Plasmodium falciparum.
A further assay deals with Entamoeba histolytica. The assay can be described thus: Antimicrobial activity against Entamoeba histolytica.
The test system of the next assay is Leishmania donovani. The assay can be described thus: Antimicrobial activity against Leishmania donovani.

On to `O=P(O)(O)C(Nc1ccc(Br)cn1)P(=O)(O)O`, for which the IC50 with Plasmodium falciparum came out at 200 µM; with Entamoeba histolytica, 44 µM.
Taken in the same sequence, the figures for `CCCCCc1ccc(NC(P(=O)(O)O)P(=O)(O)O)cc1` were 46 µM and 132 µM.
Taken in the same sequence, the figures for `C=P(O)(O)C(Nc1c(F)c(F)c(F)c(F)c1F)P(=O)(O)O` (centres undefined) were 200 µM and 200 µM.
With `O=P(O)(O)C(Nc1ccc(O)cn1)P(=O)(O)O`, the figures for the IC50 in the assay on Plasmodium falciparum and in the assay on Entamoeba histolytica were 197 µM and 96 µM, respectively.
For `CCC[C@H]1C(=O)O[C@@H]2O[C@@]3(C)CC[C@H]4[C@H](C)CC[C@@H]1[C@@]24OO3`, half-maximal inhibition in the assay with Leishmania donovani (IC50) was put at 17 µM.
On the same count and under the same terms, for `C=CC[C@H]1C(=O)O[C@@H]2O[C@@]3(C)CC[C@H]4[C@H](C)CC[C@@H]1[C@@]24OO3` the value was 18 µM.
As for `CCCC[C@H]1C(=O)O[C@@H]2O[C@@]3(C)CC[C@H]4[C@H](C)CC[C@@H]1[C@@]24OO3`, in the assay on Leishmania donovani, the midpoint of inhibition, the IC50, lay at 12 µM.
On the same count and under the same terms, for `CC(C)CCC[C@H]1C(=O)O[C@@H]2O[C@@]3(C)CC[C@H]4[C@H](C)CC[C@@H]1[C@@]24OO3` the value was 9 µM; for `C[C@@H]1CC[C@H]2[C@@H](CCCC(F)(F)F)C(=O)O[C@@H]3O[C@@]4(C)CC[C@@H]1[C@]32OO4`, 79 µM.
The compound `C[C@@H]1CC[C@H]2[C@H](CCCc3ccccc3)C(=O)O[C@@H]3O[C@@]4(C)CC[C@@H]1[C@]32OO4` yielded a 50% inhibitory concentration (IC50) in the assay on Leishmania donovani of 45 µM. This IC50 lies about 1.8-fold lower than the previous one.
The same measure, in the same setting: to `C[C@@H]1CC[C@H]2[C@@H](CCCCc3ccccc3)C(=O)O[C@@H]3O[C@@]4(C)CC[C@@H]1[C@]32OO4` belongs 8 µM.
On the same count and under the same terms, for `C[C@@H]1CC[C@H]2[C@@H](CCCc3cccc(F)c3)C(=O)O[C@@H]3O[C@@]4(C)CC[C@@H]1[C@]32OO4` the value was 4 µM; for `C[C@@H]1CC[C@H]2[C@@H](CCCc3ccc(Cl)cc3)C(=O)O[C@@H]3O[C@@]4(C)CC[C@@H]1[C@]32OO4`, 12 µM; for `COc1ccc(CCC[C@H]2C(=O)O[C@@H]3O[C@@]4(C)CC[C@H]5[C@H](C)CC[C@@H]2[C@@]35OO4)cc1`, 12 µM.
Regarding `CN(CCCc1ccccc1)CCCC(O)(P(=O)(O)O)P(=O)(O)O`, the IC50 came to 23 µM with Plasmodium falciparum and 45 µM with Entamoeba histolytica.
The corresponding values for `O=P(O)(O)C(O)(CCCCNCCCCc1ccccc1)P(=O)(O)O` are 200 µM and 21 µM.
In the assay on Leishmania donovani, `CSc1ccc(CCC[C@H]2C(=O)O[C@@H]3O[C@@]4(C)CC[C@H]5[C@H](C)CC[C@@H]2[C@@]35OO4)cc1` returned an IC50 of 1 µM.
The same measure, in the same setting: for `C[C@@H]1CC[C@H]2[C@@H](CCCc3ccc(S(C)(=O)=O)cc3)C(=O)O[C@@H]3O[C@@]4(C)CC[C@@H]1[C@]32OO4` the value was 54 µM.
As to `CN(CCCCc1ccccc1)CCCCC(O)(P(=O)(O)O)P(=O)(O)O`, the values for the IC50 in the assay on Plasmodium falciparum and in the assay on Entamoeba histolytica were 3 µM and 23 µM, respectively.
The corresponding values for `CCCCCC(C)CNC(P(=O)(O)O)P(=O)(O)O` (centres undefined) are 103 µM and 65 µM.
Taken in the same sequence, the figures for `O=P(O)(O)C(Nc1ncc(Br)cc1Br)P(=O)(O)O` were 200 µM and 29 µM.
Taken in the same sequence, the figures for `O=P(O)(O)C(Nc1ccccn1)P(=O)(O)O` were 200 µM and 200 µM.
For the compound `Cc1csc(NC(P(=O)(O)O)P(=O)(O)O)n1`, the IC50 was 5 µM in the assay with Plasmodium falciparum and 200 µM in the assay with Entamoeba histolytica.
The corresponding values for `O=P(O)(O)C(O)(CCc1cccnc1)P(=O)(O)O` are 200 µM and 200 µM.
For `O=P(O)(O)C(CNc1ccncc1)P(=O)(O)O`, the IC50 in the assay with Plasmodium falciparum and with Entamoeba histolytica was 200 µM in each case.
For the compound `NCCCCC(O)(P(=O)(O)O)P(=O)(O)O`, the IC50 in the assay on Plasmodium falciparum and in the assay on Entamoeba histolytica was 200 µM throughout.
Turning to `O=P(O)(O)C(O)(Cc1c[nH]cn1)P(=O)(O)O`, the IC50 in the assay with Plasmodium falciparum and in the assay with Entamoeba histolytica was 200 µM each time.
In the case of `CCOP(=O)(OCC)C(Nc1ncccc1C)P(=O)(OCC)OCC`, the IC50 in the assay with Plasmodium falciparum and with Entamoeba histolytica was 200 µM in each case.
For the compound `O=P(O)(O)C(Nc1cccnc1Cl)P(=O)(O)O`, the IC50 with Plasmodium falciparum and in the assay on Entamoeba histolytica was 200 µM throughout.
In the case of `CCOP(=O)(OCC)C(Nc1cc(C)ccn1)P(=O)(OCC)OCC`, the IC50 in the assay on Plasmodium falciparum and in the assay with Entamoeba histolytica was 200 µM each time.
With `O=P(O)(O)CC(c1cccnc1)P(=O)(O)O` (centres undefined), the IC50 in the assay on Plasmodium falciparum and in the assay on Entamoeba histolytica was 200 µM throughout.
For `Nc1ccc(CC(O)(P(=O)(O)O)P(=O)(O)O)cc1`, the IC50 in the assay on Plasmodium falciparum and with Entamoeba histolytica was 200 µM in each case.
For `O=P(O)(O)C(N1CCCCC1)P(=O)(O)O`, the IC50 in the assay on Plasmodium falciparum and with Entamoeba histolytica was 200 µM each time.
For the compound `O=C(O)c1cn(C2CC2)c2cc(N3CCN(CC(P(=O)(O)O)P(=O)(O)O)CC3)c(F)cc2c1=O`, the IC50 in the assay with Plasmodium falciparum and in the assay with Entamoeba histolytica was 200 µM each time.
As to `O=P(O)(O)C(Nc1ncccc1OCc1ccccc1)P(=O)(O)O`, the IC50 in the assay on Plasmodium falciparum and in the assay on Entamoeba histolytica was 200 µM each time.
Consider `O=P(O)(O)CC(c1ccncc1)P(=O)(O)O` (centres undefined), for which the IC50 in the assay on Plasmodium falciparum and with Entamoeba histolytica was 200 µM in each case.
In the case of `O=P(O)(O)CC(c1ccccn1)P(=O)(O)O` (centres undefined), the IC50 with Plasmodium falciparum and in the assay on Entamoeba histolytica was 200 µM each time.
On to `CCCCCCc1ccc(NC(P(=O)(O)O)P(=O)(O)O)cc1`, for which the IC50 in the assay with Plasmodium falciparum is 103 µM; in the assay on Entamoeba histolytica it was 36 µM.
The corresponding values for `CCc1cccc(NC(P(=O)(O)O)P(=O)(O)O)c1` are 200 µM and 200 µM.
The corresponding values for `Cc1cccnc1NC(P(=O)(O)O)P(=O)(O)O` are 200 µM and 200 µM.
Taken in the same sequence, the figures for `CC(N)CC(O)(P(=O)(O)O)P(=O)(O)O` (centres undefined) were 200 µM and 200 µM.
For `O=P(O)(O)C(Nc1cccc(-c2ccccc2)c1)P(=O)(O)O`, the values for the IC50 with Plasmodium falciparum and in the assay on Entamoeba histolytica were 200 µM and 7 µM, respectively.
Taken in the same sequence, the figures for `Cc1ccnc(NC(P(=O)(O)O)P(=O)(O)O)c1` were 200 µM and 200 µM.
The corresponding values for `CCCCCCCCCCCCCCCCCC(O)(P(=O)(O)O)P(=O)(O)O` are 200 µM and 200 µM.
The corresponding values for `O=P(O)(O)C(O)(Cc1ccncc1)P(=O)(O)O` are 200 µM and 200 µM.
Regarding `O=P(O)(O)C(Nc1ccc2c(c1)CCC2)P(=O)(O)O`, the IC50 in the assay with Plasmodium falciparum and in the assay on Entamoeba histolytica was 200 µM throughout.
For `O=P(O)(O)C(O)(Cc1ccccc1)P(=O)(O)O`, the figures for the IC50 in the assay with Plasmodium falciparum and with Entamoeba histolytica were 8 µM and 200 µM, respectively.
The corresponding values for `O=P(O)(O)C(N1CCC(O)CC1)P(=O)(O)O` are 200 µM and 200 µM.
For `O=P(O)(O)C(Nc1cc(Cl)cc(Cl)c1)P(=O)(O)O` [(3,5-DICHLOROPHENYLAMINO)METHYLENEDIPHOSPHONIC ACID], the IC50 in the assay with Plasmodium falciparum and with Entamoeba histolytica was 200 µM each time.
With `CCCCNC(P(=O)(O)O)P(=O)(O)O` [(BUTYLAMINO)METHYLENEDIPHOSPHONIC ACID], the IC50 with Plasmodium falciparum and in the assay with Entamoeba histolytica was 200 µM each time.
As for `O=P(O)(O)C(NC1CCC1)P(=O)(O)O` [(CYCLOBUTYLAMINO)METHYLENEDIPHOSPHONIC ACID], the IC50 in the assay on Plasmodium falciparum and in the assay on Entamoeba histolytica was 200 µM throughout.
For `O=P(O)(O)C(N(C1CCCCC1)C1CCCCC1)P(=O)(O)O` [(DICYCLOHEXYLAMINO)METHYLENEDIPHOSPHONIC ACID], the IC50 with Plasmodium falciparum and in the assay with Entamoeba histolytica was 200 µM in each case.
With `CCCN(CCC)C(P(=O)(O)O)P(=O)(O)O` [(DIPROPYLAMINO)METHYLENEDIPHOSPHONIC ACID], the IC50 in the assay with Plasmodium falciparum and with Entamoeba histolytica was 200 µM in each case.
For the compound `CC(C)CNC(P(=O)(O)O)P(=O)(O)O` [(ISOBUTYLAMINO)METHYLENEDIPHOSPHONIC ACID], the IC50 in the assay with Plasmodium falciparum and in the assay with Entamoeba histolytica was 200 µM each time.
Turning to `CCCCCNC(P(=O)(O)O)P(=O)(O)O` [(PENTYLAMINO)METHYLENEDIPHOSPHONIC ACID], the IC50 with Plasmodium falciparum came to 5 µM; in the assay with Entamoeba histolytica, 200 µM.
Taken in the same sequence, the figures for `O=P(O)(O)C(NCCc1ccccc1)P(=O)(O)O` [(PHENETHYLAMINO)METHYLENEDIPHOSPHONIC ACID] were 200 µM and 200 µM.
Taken in the same sequence, the figures for `CCCNC(P(=O)(O)O)P(=O)(O)O` [(PROPYLAMINO)METHYLENEDIPHOSPHONIC ACID] were 200 µM and 200 µM.
The corresponding values for `NCCCC(O)(P(=O)(O)O)P(=O)(O)O` [ALENDRONIC ACID] are 200 µM and 200 µM.
Take `O=P(O)(O)C(O)(C1CCC1)P(=O)(O)O` [CYCLOBUTYL(HYDROXY)METHYLENEDIPHOSPHONIC ACID]: the IC50 in the assay with Plasmodium falciparum and in the assay on Entamoeba histolytica was 200 µM throughout.
With `O=P(O)(O)C(O)(C1CCCCC1)P(=O)(O)O` [CYCLOHEXYL(HYDROXY)METHYLENEDIPHOSPHONIC ACID], the IC50 in the assay on Plasmodium falciparum and in the assay on Entamoeba histolytica was 200 µM each time.
Take `O=P(O)(O)C(O)(C1CC1)P(=O)(O)O` [CYCLOPROPYL(HYDROXY)METHYLENEDIPHOSPHONIC ACID]: the IC50 with Plasmodium falciparum and with Entamoeba histolytica was 200 µM in each case.
Consider `CCCCCN(C)CCC(O)(P(=O)(O)O)P(=O)(O)O` [IBANDRONIC ACID], for which the results for the half-inhibitory concentration (IC50) with Plasmodium falciparum and with Entamoeba histolytica were 59 µM and 54 µM, respectively.
For the compound `O=P(O)(O)C(NC1CCCCCC1)P(=O)(O)O` [INCADRONIC ACID], the IC50 in the assay on Plasmodium falciparum and in the assay with Entamoeba histolytica was 200 µM in each case.
Consider `O=P(O)(O)C(N1CCCCCC1)P(=O)(O)O` [N-(HEXAMETHYLENEIMINO)METHYLENEBISPHOSPHONIC ACID], for which the IC50 in the assay with Plasmodium falciparum and in the assay on Entamoeba histolytica was 200 µM each time.
On to `NCCCCCC(O)(P(=O)(O)O)P(=O)(O)O` [NERIDRONIC ACID], for which the IC50 with Plasmodium falciparum and in the assay with Entamoeba histolytica was 200 µM each time.
For the compound `CN(C)CCC(O)(P(=O)(O)O)P(=O)(O)O` [OLPADRONIC ACID], the IC50 with Plasmodium falciparum and in the assay with Entamoeba histolytica was 200 µM each time.
Consider `NCCC(O)(P(=O)(O)O)P(=O)(O)O` [PAMIDRONIC ACID], for which the IC50 in the assay with Plasmodium falciparum and with Entamoeba histolytica was 200 µM in each case.
Regarding `O=P(O)(O)C(N1CCSCC1)P(=O)(O)O` [THIOMORPHOLINOMETHYLENEDIPHOSPHONIC ACID], the IC50 with Plasmodium falciparum and with Entamoeba histolytica was 200 µM in each case.

The term IC50 denotes the concentration needed to halve the response being measured. Low readings indicate greater potency in that assay, high ones weaker potency in that assay.
